We go through 16 compounds from patent EP4745134A1 (Jiangsu Yahong Meditech Co., Ltd., priority 2023, dated 2025).

One assay relates to HCT116 MTAP KO cells. The assay is described as follows: Inhibitory activity against cell proliferation (CellTiter Glo, 6 days), HCT116 MTAP KO. In kind it is cell-based. The conditions noted are these: for IC50: Homo sapiens, HCT-116, 144 h, HCT116 MTAP KO cells, 6 days, CellTiter Glo, read-out: HCT116 MTAP KO IC50; for Selectivity HCT 116-WT/ HCT116 MTAP KO: ratio of IC50 HCT116-WT / HCT116 MTAP KO. The essentials:
(§1)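 Viability is measured by CellTiter Glo luminescence on day 7, following a 6-day treatment with compounds serially diluted 4-fold over 8 points from 10000 nM. Both lines are plated at 250 cells per well and cultured overnight beforehand.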

A further assay deals with HCT116-WT cells. Put plainly: Inhibitory activity against cell proliferation (CellTiter Glo, 6 days), HCT116-WT. In kind it is cell-based. The conditions noted are these: 144 h, HCT116-WT cells, 6 days, CellTiter Glo; read-out: HCT116-WT IC50. An outline of the steps:
as §1
(In general: Cellular ATP, detected with luciferase, serves as a proxy for viable cell number.)

The next assay concerns the target PRMT5-MTA (Homo sapiens, UniProt O14744). Put plainly: Enzymatic inhibitory activity against PRMT5-MTA (AlphaScreen). It counts as biochemical. The settings on record: read-out: IC50. An outline of the steps:
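PRMT5/[…] (1 nM) was preincubated for 30 min at room temperature with 1 µM […] and 2.5 µM SAM, then exposed to compound (10-point, 3-fold from 1000 nM) for 15 min at 23 °C. Histone H4 substrate (5 nM) was added and reacted for 45 min at 23 °C. Symmetric dimethyl-R3 H4 was detected by AlphaScreen and IC50 calculated.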
(Bead proximity is the source of the signal in Alpha formats.)

Sequence of PRMT5-MTA (O14744 whole entry): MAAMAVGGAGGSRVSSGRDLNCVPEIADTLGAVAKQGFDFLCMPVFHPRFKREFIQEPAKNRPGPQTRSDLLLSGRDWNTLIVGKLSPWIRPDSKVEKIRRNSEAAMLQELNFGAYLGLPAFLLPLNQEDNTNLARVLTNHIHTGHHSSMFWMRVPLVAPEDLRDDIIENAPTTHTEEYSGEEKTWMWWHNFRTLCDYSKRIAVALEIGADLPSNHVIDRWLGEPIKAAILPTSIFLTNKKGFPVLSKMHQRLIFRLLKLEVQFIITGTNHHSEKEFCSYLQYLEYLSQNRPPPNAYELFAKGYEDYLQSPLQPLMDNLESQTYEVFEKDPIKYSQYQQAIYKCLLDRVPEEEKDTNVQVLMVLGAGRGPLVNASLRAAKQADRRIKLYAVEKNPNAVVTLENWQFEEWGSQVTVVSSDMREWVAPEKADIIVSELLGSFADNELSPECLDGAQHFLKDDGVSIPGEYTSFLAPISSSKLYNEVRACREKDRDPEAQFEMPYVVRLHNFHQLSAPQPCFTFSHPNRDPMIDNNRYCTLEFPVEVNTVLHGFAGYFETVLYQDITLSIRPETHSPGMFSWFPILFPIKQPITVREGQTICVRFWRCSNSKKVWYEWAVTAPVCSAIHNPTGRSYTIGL
Sequence of PRMT5-MTA (Q9BQA1 whole entry partner): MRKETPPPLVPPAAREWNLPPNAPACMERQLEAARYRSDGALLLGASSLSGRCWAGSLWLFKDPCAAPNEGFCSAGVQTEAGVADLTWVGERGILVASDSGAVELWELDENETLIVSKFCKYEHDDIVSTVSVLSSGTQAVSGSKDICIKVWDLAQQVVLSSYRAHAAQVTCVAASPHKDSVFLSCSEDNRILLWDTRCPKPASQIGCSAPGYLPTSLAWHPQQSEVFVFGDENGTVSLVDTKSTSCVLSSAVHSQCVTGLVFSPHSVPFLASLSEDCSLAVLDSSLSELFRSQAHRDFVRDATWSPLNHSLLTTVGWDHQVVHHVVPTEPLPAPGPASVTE

Regarding `COc1cc(-c2ccc(CN(C(=O)c3ccc4nc(N)c(C)cc4c3)N(C)c3ncccn3)nc2)cnc1F` [Example 199, 2-amino-N-((6'-fluoro-5'-methoxy-[3,3'-bipyridine]-6-yl)methyl)-N',3-dimethyl-N'-(pyrimidin-2-yl)quinoline-6-carbohydrazide], the concentration for half-maximal inhibition (IC50) (as a rule, the concentration that inhibits the measured activity by half) turned out to be 106 nM in the assay with HCT116 MTAP KO cells, 1960 nM with HCT116-WT cells and 2.5 nM at PRMT5-MTA. For the same compound, the “Selectivity HCT 116-WT/ HCT116 MTAP KO” value with HCT116 MTAP KO cells was found to be 18.53.

As to `CCC1CN(C(=O)c2cc3c(cc2C)nc(N)c2cnn(C)c23)N(c2ncccc2F)C1` (stereo not shown) [Example 415, (4-amino-1,7-dimethyl-1H-pyrazolo[4,3-c]quinolin-8-yl)(4-ethyl-2-(3-fluoropyridin-2-yl)pyrazolidin-1-yl)methanone], the half-maximal inhibitory concentration (IC50) in the assay on HCT116 MTAP KO cells stood at 19 nM; with HCT116-WT cells, 810 nM; at PRMT5-MTA, 2.6 nM. Further, in the assay on HCT116 MTAP KO cells, the “Selectivity HCT 116-WT/ HCT116 MTAP KO” value was determined as 42.63.

`Cc1cc2cc(C(=O)N(Cc3ccc(C(F)(F)F)cn3)N(C)c3nccc4ccsc34)ccc2nc1N` [Example 274, 2-amino-N',3-dimethyl-N'-(thieno[2,3-c]pyridin-7-yl)-N-((5-(trifluoromethyl)pyridin-2-yl)methyl)quinoline-6-carbohydrazide]: the IC50 in the assay on HCT116 MTAP KO cells was found to be 167 nM; with HCT116-WT cells, 2520 nM; at PRMT5-MTA, 3.7 nM. In addition, the “Selectivity HCT 116-WT/ HCT116 MTAP KO” value with HCT116 MTAP KO cells is listed as 15.10.

On to `Cc1cc2cc(C(=O)N(Cc3ccc(-c4cncc(C(F)(F)F)c4)cn3)N(C)c3ncccn3)ccc2nc1N` [Example 175, 2-amino-N',3-dimethyl-N'-(pyrimidin-2-yl)-N-((5'-(trifluoromethyl)-[3,3'-bipyridine]-6-yl)methyl)quinoline-6-carbohydrazide], for which the IC50 was 116 nM in the assay on HCT116 MTAP KO cells, 2200 nM in the assay with HCT116-WT cells and 3.3 nM at PRMT5-MTA. In addition, the “Selectivity HCT 116-WT/ HCT116 MTAP KO” value in the assay on HCT116 MTAP KO cells was determined as 18.95.

As for `CCc1cc2cc(C(=O)N(Cc3ccc(C(F)(F)F)cn3)N(C)c3ncccn3)ccc2nc1N` [Example 305, 2-amino-3-ethyl-N'-methyl-N'-(pyrimidin-2-yl)-iN-((5-(trifluoromethyl)pyridin-2-yl)methyl)quinoline-6-carbohydrazide], the IC50 was determined as 85 nM in the assay on HCT116 MTAP KO cells, 1670 nM in the assay with HCT116-WT cells and 2.3 nM on PRMT5-MTA. In the assay on HCT116 MTAP KO cells, the “Selectivity HCT 116-WT/ HCT116 MTAP KO” value is 19.60.

For `Cc1cc2cc(C(=O)N(Cc3ccc(C(F)(F)F)cn3)N(C)c3nccc4c3ncn4C)ccc2nc1N` [Example 265, 2-amino-N',3-dimethyl-N'-(1-methyl-1H-imidazo[4,5-c]pyridin-4-yl)-N-((5-(trifluoromethyl)pyridin-2-yl)methyl)quinoline-6-carbohydrazide], the concentration for half-maximal inhibition (IC50) in the assay on HCT116 MTAP KO cells was 38 nM; in the assay on HCT116-WT cells, 549 nM; at PRMT5-MTA it was 2 nM. Further, in the assay with HCT116 MTAP KO cells, the “Selectivity HCT 116-WT/ HCT116 MTAP KO” value is recorded as 14.45.

Regarding `Cc1cc2nc(N)c3cnn(C)c3c2cc1C(=O)N1CC(C)CN1c1cncc(F)c1` (stereo not shown) [Example 387, (4-amino-1,7-dimethyl-1H-pyrazolo[4,3-c]quinolin-8-yl)(2-(5-fluoropyridin-3-yl)-4-methylpyrazolidin-1-yl)methanone], the IC50 amounted to 90 nM in the assay on HCT116 MTAP KO cells, 2470 nM in the assay on HCT116-WT cells and 3.7 nM at PRMT5-MTA. The “Selectivity HCT 116-WT/ HCT116 MTAP KO” value in the assay on HCT116 MTAP KO cells came to 27.40.

`Cc1cc2nc(N)c3cnn(C)c3c2cc1C(=O)N1CC(=O)CN1c1ncccc1F` [Example 354, 1-(4-amino-1,7-dimethyl-1H-pyrazolo[4,3-c]quinoline-8-carbonyl)-2-(3-fluoropyridin-2-yl)pyrazolin-4-one]: the IC50 in the assay on HCT116 MTAP KO cells came to 62 nM; in the assay with HCT116-WT cells it was 2530 nM; at PRMT5-MTA, 3.8 nM. Moreover, the “Selectivity HCT 116-WT/ HCT116 MTAP KO” value in the assay with HCT116 MTAP KO cells worked out at 40.76.

As for `Cc1cc2nc(N)c3cnn(C)c3c2cc1C(=O)N1CC(F)CN1c1ncccc1F` (stereo not shown) [Example 450, (4-amino-1,7-dimethyl-1H-pyrazolo[4,3-c]quinolin-8-yl)(4-fluoro-2-(3-fluoropyridin-2-yl)pyrazolidin-1-yl)methanone], the IC50 in the assay on HCT116 MTAP KO cells was 20 nM; in the assay with HCT116-WT cells, 1220 nM; at PRMT5-MTA, 3.8 nM. Moreover, in the assay on HCT116 MTAP KO cells, the “Selectivity HCT 116-WT/ HCT116 MTAP KO” value stood at 61.20.

For `Cc1cc2nc(N)c3cnn(C)c3c2cc1C(=O)N1CC(C)CN1c1ccccc1` (stereo not shown) [Example 396, (4-amino-1,7-dimethyl-1H-pyrazolo[4,3-c]quinolin-8-yl)(4-methyl-2-phenylpyrazolidin-1-yl)methanone], the half-maximal inhibitory concentration (IC50) with HCT116 MTAP KO cells is 298 nM; with HCT116-WT cells it was 4830 nM; on PRMT5-MTA it was 5.2 nM. In the assay on HCT116 MTAP KO cells, the “Selectivity HCT 116-WT/ HCT116 MTAP KO” value stood at 16.21.

Turning to `Cc1cc2cc(C(=O)N(Cc3ccc(-c4cc[nH]n4)cn3)N(C)c3ncccn3)ccc2nc1N` [Example 142, N-((5-(1H-pyrazol-3-yl)pyridin-2-yl)methyl)-2-amino-N',3-dimethyl-N'-(pyrimidin-2-yl)quinoline-6-carbohydrazide], the figures for the IC50 in the assay on HCT116 MTAP KO cells, in the assay on HCT116-WT cells and on PRMT5-MTA were 201 nM, 3910 nM and 4.1 nM, respectively. Also, the “Selectivity HCT 116-WT/ HCT116 MTAP KO” value with HCT116 MTAP KO cells came out at 19.43.

With `Cc1cc2nc(N)c3cnn(C)c3c2cc1C(=O)N1CC(C)CN1c1ncc(-c2nncs2)cc1F` (stereo not shown) [Example 487, (4-amino-1,7-dimethyl-1H-pyrazolo[4,3-c]quinolin-8-yl)(2-(3-fluoro-5-(1,3,4-thiadiazol-2-yl)pyridin-2-yl)-4-methylpyrazolidin-1-yl)methanone], the IC50 was 58 nM in the assay with HCT116 MTAP KO cells, 2350 nM in the assay on HCT116-WT cells and 6.7 nM at PRMT5-MTA. Besides, the “Selectivity HCT 116-WT/ HCT116 MTAP KO” value in the assay with HCT116 MTAP KO cells stood at 40.52.

Regarding `C=C1CN(C(=O)c2cc3c(cc2Cl)nc(N)c2cnn(C)c23)N(c2ncc(F)cc2F)C1` [Example 432, (4-amino-7-chloro-1-methyl-1H-pyrazolo [4,3-c]quinolin-8-yl)(2-(3,5-2 fluoropyridin-2-yl)-4-methylenepyrazolidin-1-yl)methanone], the figures for the IC50 in the assay on HCT116 MTAP KO cells, in the assay with HCT116-WT cells and at PRMT5-MTA were 16 nM, 657 nM and 4.5 nM, respectively. For the same compound, the “Selectivity HCT 116-WT/ HCT116 MTAP KO” value in the assay on HCT116 MTAP KO cells is listed as 41.06.

With `Cc1cc2nc(N)c3cnn(C)c3c2cc1C(=O)N1C[C@H](C)CN1c1ncccc1F` (single isomer, unassigned) [Example 465], the half-maximal inhibitory concentration (IC50) in the assay with HCT116 MTAP KO cells was 23 nM; in the assay with HCT116-WT cells it was 1040 nM; at PRMT5-MTA it was 3.4 nM. Moreover, the “Selectivity HCT 116-WT/ HCT116 MTAP KO” value in the assay on HCT116 MTAP KO cells turned out to be 45.35.

`COC1CN(C(=O)c2cc3c(cc2C)nc(N)c2cnn(C)c23)N(c2cccc(F)n2)C1` (stereo not shown) [Example 449, (4-amino-1,7-dimethyl-1H-pyrazolo[4,3-c]quinolin-8-yl)(2-(6-fluoropyridin-2-yl) -4-methoxypyrazolidin-1-yl)methanone]: the figures for the concentration for half-maximal inhibition (IC50) in the assay on HCT116 MTAP KO cells, in the assay on HCT116-WT cells and at PRMT5-MTA were 63 nM, 1470 nM and 5.2 nM, respectively. For the same compound, in the assay on HCT116 MTAP KO cells, the “Selectivity HCT 116-WT/ HCT116 MTAP KO” value is 23.37.

For the compound `[2H]C([2H])([2H])c1cc2cc(C(=O)N(Cc3ccc(-c4cnn(C)c4)cn3)N(C)c3ncccn3)ccc2nc1N` [Example 166, 2-amino-N'-methyl-3-(methyl-D3)-N-((5-(1-methyl-1H-pyrazol-4-yl)pyridin-2-yl)methyl)-N'-(pyrimidin-2-yl)quinoline-6-carbohydrazide], the results for the IC50 with HCT116 MTAP KO cells, with HCT116-WT cells and at PRMT5-MTA were 68 nM, 1250 nM and 4.8 nM, respectively. In addition, the “Selectivity HCT 116-WT/ HCT116 MTAP KO” value in the assay on HCT116 MTAP KO cells was determined as 18.32.
